Patent publication US20080317857A1, “V-Atpase Inhibitors of Use in the Treatment of Septic Shock” (Brane Discovery S.r.l., priority 2005, published 2008)

Tests used:
PMNs [1] = experiment: Chemoattractant-induced rapid adhesion of PMNs to fibrinogen (CR3 ligand); format: cell-based; settings: Homo sapiens
Procedure: (§1) Adhesion was performed on purified integrin ligands and was evaluated as reported in Constantin G. et al., Immunity, 16, 759-769, 2000. Briefly, primary naïve lymphocytes, polymorphonuclear neutrophils (PMNs) or monocytes were isolated form healthy donors. In other experiments, murine autoreactive T cells were obtained from SJL mice immunized with PLP139-151 as described (Piccio L. et al., J. Immunol. 168, 1940-1949, 2002). Cells were resuspended at 4×10^6/ml in PBS, CaCl2, MgCl2 1 mM, 10% FCS, pH 7.2. Adhesion assays were performed on eighteen well glass slides coated overnight at 4° C. with ligands for CR3 (fibrinogen) or LFA-1 (ICAM-1). 20 μl of cell suspension were added to the wells and stimulated at 37° C. with 5 μl of agonists prior to washing, fixation and computer-assisted enumeration of bound cells.
(§2) Integrin activation was measured as induction of rapid adhesion triggered by the classical chemoattractant N-formyl-L-methionyl-L-leucyl-phenylalanine (fMLP) (100 nM) or by the CC chemokine MIP3β (CCL19, 1 μM). PMNs and monocytes were triggered to adhere to fibrinogen (CR3 ligand); naive human lymphocytes or murine encephalitogenic T cells were triggered to adhere to ICAM-1 (LFA-1 ligand). Triggered adhesion was evaluated after 2 min of stimulation under static conditions. The cells were pretreated at 37° C. for 30-60 min with the indicated concentrations of the test compound. Results are expressed as percentage of inhibition over control (=100%) and are the mean of three experiments in the case of human leukocytes. Results are expressed as mean counts and are the mean counts±S.D of three experiments and are the mean of three experiments in the case of murine encephalitogenic lymphocytes.
(§3) Integrin activation was measured as induction of rapid adhesion triggered by the “classical” chemoattractant fMLP (100 nM) or by the CC chemokine MIP3β(CCL19, 1 μM). PMNs were triggered to adhere to fibrinogen (CR3 ligand); lymphocytes were triggered to adhere to ICAM-1 (LFA-1 ligand).

[2] = system: endotoxic shock induced by LPS in C57BI/6 male mice; experiment: Septic shock animal model (LPS-induced endotoxic shock), survival; format: in vivo
From the text: The model is represented by endotoxic shock, the most common type of septic shock in humans.
The septic shock has been induced in 8-10 week-old C57BI/6 male mice (Harlan-Nossan laboratories) by high concentrations of LPS (lipopolysaccharide), that is considered a reliable experimental model for human endotoxic shock (Garrido et al., Acta Chir. Bras., 19, 2004).
LPS from Escherichia coli 0127:B7 (Sigma) was solubilized in PBS containing 2% fetal calf serum (FCS) as a source of “LPS binding protein”, a molecule that increases the endotoxin action. Mice received 37.5 mg/kg LPS/endotoxin intraperitoneally (i.p.). Animals (ten/group) were monitored at least four times daily and survival of animals was determined in control and treated mice (Lowell C. A. et al., PNAS 95, 7580, 1998).
In the preventive study (FIG. 3), control mice received only vehicle, while treated mice received 70 mg/kg i.p. of Compound of Example 1 two hours before the administration of LPS.
In the therapeutic study (FIG. 4), control mice received only vehicle, while treated mice received both 70 mg/kg i.p. of Compound of Example 1 (3 hours after LPS administration) and 10 mg/kg i.v. (intravenously) (12 hours after LPS administration).

Monocytes [3] = experiment: Chemoattractant-induced rapid adhesion of monocytes to fibrinogen; format: cell-based; settings: Homo sapiens, Monocyte, read-out: Inhibition of Adhesion (%) Monocytes (fMLP)
Procedure: as §1, §2

Lymphocytes [4] = experiment: Chemotaxis assay, lymphocytes (transwell); format: cell-based; settings: Homo sapiens, Lymphocyte
Procedure: (§4) PMNs and monocytes migration was assessed using 1 or 3-μm pore size transwells (Bio-Coat Becton-Dickinson), while lymphocytes by using 5-μm pore size transwells.
(§5) Cells were in RPMI1640, containing 10% heat-inactivated Fetal Calf Serum (FCS) and 20 mM HEPES, pH 7.3, at 2×10^6/ml. 100 μl of cell suspension were added to the top well, and 600 μl of medium, containing chemoaftractants and test compound, were added to the bottom well. Migration was evaluated after 2 h for PMNs and monocytes and after 4 h for lymphocytes. fMLP 10 nM (PMNs and monocytes) and MIP-3β 100 nM (lymphocytes) were utilized as chemoattractants. After fixation with 1.5% glutaraldehyde, migrated cells were counted by fluorescence-activated cell sorting using polystyrene beads (Polyscience) as an internal standard (Campbell J. J. et al. J. Cell. Biol. 134, 255-266, 1996; Laudanna C. et al. J. Biol. Chem. 273, 46, 30306-30315, 1998).
(§6) Results are expressed as percentage of inhibition over control (=100%), and are the mean of three experiments.

PMNs [5] = experiment: Chemotaxis assay, PMNs (transwell); format: cell-based; settings: Homo sapiens
Procedure: as §4, §5, §6

Lymphocytes [6] = experiment: Chemokine-induced rapid adhesion of lymphocytes to ICAM-1 (LFA-1 ligand); format: cell-based; settings: Homo sapiens, Lymphocyte
Procedure: as §1, §2, §3

Monocytes [7] = experiment: Chemotaxis assay, monocytes (transwell); format: cell-based; settings: Homo sapiens, Monocyte
Procedure: as §4, §5, §6

COC(=O)c1[nH]c2cc(OC)c(OC)cc2c1-c1ccc(OC)cc1 [Example 1]
inhibition at 2.5 µM (PMNs [1]; [cpd] 2.5 μM, read-out: Inhibition of Adhesion (%) PMNs (fMLP)): 9.4% | inhibition at 5 µM (PMNs [1]; [cpd] 5 μM, read-out: Inhibition of Adhesion (%) PMNs (fMLP) (converted)): 56.1% | inhibition at 10 µM (PMNs [1]; [cpd] 10 μM, read-out: Inhibition of Adhesion (%) PMNs (fMLP) (converted)): 66.7% | inhibition at 25 µM (PMNs [1]; [cpd] 25 μM, read-out: Inhibition of Adhesion (%) PMNs (fMLP) (converted)): 72.9% | inhibition at 50 µM (PMNs [1]; [cpd] 50 μM, read-out: Inhibition of Adhesion (%) PMNs (fMLP) (converted)): 79% | inhibition at 100 µM (PMNs [1]; [cpd] 100 μM, read-out: Inhibition of Adhesion (%) PMNs (fMLP) (converted)): 94.2% | survival, therapeutic study ([2]; 70 mg/kg i.p. 3 hours and 10 mg/kg i.v. 12 hours after LPS, at 52 hours, control survival 0%): 40% | mortality, preventive study ([2]; 70 mg/kg i.p. two hours before LPS, at 90 hours, control mortality 100%): 20% | survival, preventive study ([2]; 70 mg/kg i.p. two hours before LPS, at 90 hours, control survival 0%): 80% | inhibition at 2.5 µM (Monocytes [3]; [cpd] 2.5 μM): < 5% | inhibition at 5 µM (Monocytes [3]; [cpd] 5 μM): < 5% | inhibition at 10 µM (Monocytes [3]; [cpd] 10 μM): < 5% | inhibition at 25 µM (Monocytes [3]; [cpd] 25 μM): < 5% | inhibition at 50 µM (Monocytes [3]; [cpd] 50 μM): < 5% | inhibition at 100 µM (Monocytes [3]; [cpd] 100 μM): < 5% | inhibition at 2.5 µM (Lymphocytes [4]; [cpd] 2.5 μM, read-out: Inhibition of Chemotaxis (%) Lymphocytes (MIP3-β)): 11.6% | inhibition at 5 µM (Lymphocytes [4]; [cpd] 5 μM, read-out: Inhibition of Chemotaxis (%) Lymphocytes (MIP3-β) (converted)): 27.2% | inhibition at 10 µM (Lymphocytes [4]; [cpd] 10 μM, read-out: Inhibition of Chemotaxis (%) Lymphocytes (MIP3-β) (converted)): 43.2% | inhibition at 25 µM (Lymphocytes [4]; [cpd] 25 μM, read-out: Inhibition of Chemotaxis (%) Lymphocytes (MIP3-β) (converted)): 53.3% | inhibition at 50 µM (Lymphocytes [4]; [cpd] 50 μM, read-out: Inhibition of Chemotaxis (%) Lymphocytes (MIP3-β) (converted)): 63.5% | inhibition at 100 µM (Lymphocytes [4]; [cpd] 100 μM, read-out: Inhibition of Chemotaxis (%) Lymphocytes (MIP3-β) (converted)): 86.9% | inhibition at 2.5 µM (PMNs [5]; [cpd] 2.5 μM, read-out: Inhibition of Chemotaxis (%) PMNs (fMLP)): 14.6% | inhibition at 5 µM (PMNs [5]; [cpd] 5 μM, read-out: Inhibition of Chemotaxis (%) PMNs (fMLP) (converted)): 28.2% | inhibition at 10 µM (PMNs [5]; [cpd] 10 μM, read-out: Inhibition of Chemotaxis (%) PMNs (fMLP) (converted)): 34% | inhibition at 25 µM (PMNs [5]; [cpd] 25 μM, read-out: Inhibition of Chemotaxis (%) PMNs (fMLP) (converted)): 40.6% | inhibition at 50 µM (PMNs [5]; [cpd] 50 μM, read-out: Inhibition of Chemotaxis (%) PMNs (fMLP)): 46.4% | inhibition at 100 µM (PMNs [5]; [cpd] 100 μM, read-out: Inhibition of Chemotaxis (%) PMNs (fMLP) (converted)): 62.6% | inhibition at 2.5 µM (Lymphocytes [6]; [cpd] 2.5 μM, read-out: Inhibition of Adhesion (%) Lymphocytes (MIP3-β)): 32.4% | inhibition at 5 µM (Lymphocytes [6]; [cpd] 5 μM, read-out: Inhibition of Adhesion (%) Lymphocytes (MIP3-β) (converted)): 41.2% | inhibition at 10 µM (Lymphocytes [6]; [cpd] 10 μM, read-out: Inhibition of Adhesion (%) Lymphocytes (MIP3-β) (converted)): 42.6% | inhibition at 25 µM (Lymphocytes [6]; [cpd] 25 μM, read-out: Inhibition of Adhesion (%) Lymphocytes (MIP3-β) (converted)): 60.8% | inhibition at 50 µM (Lymphocytes [6]; [cpd] 50 μM, read-out: Inhibition of Adhesion (%) Lymphocytes (MIP3-β) (converted)): 61.8% | inhibition at 100 µM (Lymphocytes [6]; [cpd] 100 μM, read-out: Inhibition of Adhesion (%) Lymphocytes (MIP3-β) (converted)): 98.6% | inhibition at 2.5 µM (Monocytes [7]; [cpd] 2.5 μM, read-out: Inhibition of Chemotaxis (%) Monocytes (fMLP)): 10.5% | inhibition at 5 µM (Monocytes [7]; [cpd] 5 μM, read-out: Inhibition of Chemotaxis (%) Monocytes (fMLP) (converted)): 15.5% | inhibition at 10 µM (Monocytes [7]; [cpd] 10 μM, read-out: Inhibition of Chemotaxis (%) Monocytes (fMLP) (converted)): 18.3% | inhibition at 25 µM (Monocytes [7]; [cpd] 25 μM, read-out: Inhibition of Chemotaxis (%) Monocytes (fMLP) (converted)): 47.4% | inhibition at 50 µM (Monocytes [7]; [cpd] 50 μM, read-out: Inhibition of Chemotaxis (%) Monocytes (fMLP) (converted)): 46.3% | inhibition at 100 µM (Monocytes [7]; [cpd] 100 μM, read-out: Inhibition of Chemotaxis (%) Monocytes (fMLP) (converted)): 75.5%
